From ChEMBL document CHEMBL3286339, “Synthesis and in vivo SAR study of indolin-2-one-based multi-targeted inhibitors as potential anticancer agents” (Eur J Med Chem, 2014)

What was measured:
[1] = molecular target: Tyrosine-protein kinase Fyn (Homo sapiens, UniProt P06241); test: Binding affinity to FYN (unknown origin)
[2] = molecular target: Serine/threonine-protein kinase Chk1 (Homo sapiens) (UniProt O14757); test: Inhibition of CHK1 (unknown origin) at 1 uM relative to control
[3] = Antiproliferative activity against human NCI-H3122 cells after 72 hrs by MTT assay; format: functional, cell-based; conditions: NCI-H3122, 72 h
[4] = molecular target: Vascular endothelial growth factor receptor 1 (Homo sapiens, UniProt P17948); test: Binding affinity to VEGFR1 (unknown origin)
[5] = molecular target: ALK tyrosine kinase receptor (Homo sapiens, UniProt Q9UM73); conditions: 1 uM
Description: Inhibition of ALK (unknown origin) at 1 uM relative to control

Mus musculus [6] = test: Toxicity in BALB/c nude mouse xenografted with human HT-29 cells assessed as severe weight loss at 80 mg/kg/day administered qd; format: organism-based; conditions: in vivo
[7] = molecular target: Fibroblast growth factor receptor 1 (Homo sapiens, UniProt P11362); test: Binding affinity to FGFR1 (unknown origin)
[8] = molecular target: Tyrosine-protein kinase Lck (Homo sapiens, UniProt P06239); conditions: 1 uM
Description: Inhibition of LCK (unknown origin) at 1 uM relative to control

Mus musculus [9] = test: Toxicity in BALB/c nude mouse xenografted with human NCI-H460 cells assessed as change in body weight at 40 mg/kg/day administered qd relative to control; format: organism-based; conditions: in vivo
[10] = molecular target: Tyrosine-protein kinase receptor UFO (Homo sapiens) (UniProt P30530); conditions: 1 uM
Description: Inhibition of AXL (unknown origin) at 1 uM relative to control

[11] = molecular target: Serine/threonine-protein kinase Chk1 (Homo sapiens, UniProt O14757); test: Binding affinity to CHK1 (unknown origin)
Focal adhesion kinase 1 = Focal adhesion kinase 1 (Homo sapiens, UniProt Q05397); test: Inhibition of FAK (unknown origin) at 1 uM relative to control
Mus musculus [12] = test: Toxicity in BALB/c nude mouse xenografted with human HT-29 cells assessed as bloody stool at 80 mg/kg/day administered qd measured up to day 21; format: organism-based; conditions: in vivo
[13] = molecular target: Vascular endothelial growth factor receptor 3 (Homo sapiens, UniProt P35916); conditions: 1 uM
Description: Inhibition of VEGFR3 (unknown origin) at 1 uM relative to control

[14] = molecular target: Macrophage colony-stimulating factor 1 receptor (Homo sapiens, UniProt P07333); test: Binding affinity to FMS (unknown origin)

Sequence of Serine/threonine-protein kinase Chk1 (Homo sapiens) (O14757 whole entry): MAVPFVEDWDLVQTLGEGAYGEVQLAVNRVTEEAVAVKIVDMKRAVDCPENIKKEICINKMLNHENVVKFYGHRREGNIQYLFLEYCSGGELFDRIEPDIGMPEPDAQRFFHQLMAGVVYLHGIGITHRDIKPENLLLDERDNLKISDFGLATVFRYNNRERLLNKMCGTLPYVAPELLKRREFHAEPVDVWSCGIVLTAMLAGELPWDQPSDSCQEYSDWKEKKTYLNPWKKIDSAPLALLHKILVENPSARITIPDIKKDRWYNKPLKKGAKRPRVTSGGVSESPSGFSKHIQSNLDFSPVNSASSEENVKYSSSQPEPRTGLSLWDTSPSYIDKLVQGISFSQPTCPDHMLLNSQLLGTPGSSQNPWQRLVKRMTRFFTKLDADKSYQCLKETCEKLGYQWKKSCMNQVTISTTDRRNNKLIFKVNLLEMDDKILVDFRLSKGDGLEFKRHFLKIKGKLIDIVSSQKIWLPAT
Sequence of Serine/threonine-protein kinase Chk1 (O14757 whole entry): as above
Sequence of Vascular endothelial growth factor receptor 3 (P35916 whole entry): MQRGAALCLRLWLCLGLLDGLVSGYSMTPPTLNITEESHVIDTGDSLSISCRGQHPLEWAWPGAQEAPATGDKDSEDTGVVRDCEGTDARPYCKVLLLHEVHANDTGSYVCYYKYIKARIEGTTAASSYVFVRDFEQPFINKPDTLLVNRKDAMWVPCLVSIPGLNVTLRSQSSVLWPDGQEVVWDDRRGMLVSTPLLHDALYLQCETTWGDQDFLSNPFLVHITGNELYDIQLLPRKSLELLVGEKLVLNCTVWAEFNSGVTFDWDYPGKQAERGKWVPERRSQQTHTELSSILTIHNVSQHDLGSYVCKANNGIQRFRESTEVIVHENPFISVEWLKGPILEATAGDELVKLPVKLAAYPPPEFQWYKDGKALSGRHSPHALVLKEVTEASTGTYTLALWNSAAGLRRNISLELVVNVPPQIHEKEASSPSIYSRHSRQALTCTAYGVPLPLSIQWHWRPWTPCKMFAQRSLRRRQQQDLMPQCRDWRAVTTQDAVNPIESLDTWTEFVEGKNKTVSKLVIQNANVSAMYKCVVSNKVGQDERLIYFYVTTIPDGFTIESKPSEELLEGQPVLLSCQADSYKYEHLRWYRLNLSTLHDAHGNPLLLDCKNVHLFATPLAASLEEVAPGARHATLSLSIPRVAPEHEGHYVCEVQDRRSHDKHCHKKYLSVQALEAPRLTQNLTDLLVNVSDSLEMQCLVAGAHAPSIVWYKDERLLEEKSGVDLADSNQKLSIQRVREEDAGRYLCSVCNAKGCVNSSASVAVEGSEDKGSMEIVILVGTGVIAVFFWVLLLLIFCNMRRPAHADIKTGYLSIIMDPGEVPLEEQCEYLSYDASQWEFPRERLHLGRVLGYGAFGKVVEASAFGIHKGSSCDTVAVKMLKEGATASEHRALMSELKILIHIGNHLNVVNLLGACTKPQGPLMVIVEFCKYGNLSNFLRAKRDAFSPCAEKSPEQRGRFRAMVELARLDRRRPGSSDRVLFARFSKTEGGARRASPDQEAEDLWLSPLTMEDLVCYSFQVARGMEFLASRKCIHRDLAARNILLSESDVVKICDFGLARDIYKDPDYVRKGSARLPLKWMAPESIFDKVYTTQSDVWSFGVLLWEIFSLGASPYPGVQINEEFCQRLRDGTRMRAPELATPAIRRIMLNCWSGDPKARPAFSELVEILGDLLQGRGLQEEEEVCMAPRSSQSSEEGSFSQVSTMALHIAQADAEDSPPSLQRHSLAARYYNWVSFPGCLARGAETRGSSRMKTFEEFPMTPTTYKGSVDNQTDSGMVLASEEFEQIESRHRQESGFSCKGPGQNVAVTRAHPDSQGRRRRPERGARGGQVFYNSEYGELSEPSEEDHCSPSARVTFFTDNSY
Sequence of Vascular endothelial growth factor receptor 1 (P17948 whole entry): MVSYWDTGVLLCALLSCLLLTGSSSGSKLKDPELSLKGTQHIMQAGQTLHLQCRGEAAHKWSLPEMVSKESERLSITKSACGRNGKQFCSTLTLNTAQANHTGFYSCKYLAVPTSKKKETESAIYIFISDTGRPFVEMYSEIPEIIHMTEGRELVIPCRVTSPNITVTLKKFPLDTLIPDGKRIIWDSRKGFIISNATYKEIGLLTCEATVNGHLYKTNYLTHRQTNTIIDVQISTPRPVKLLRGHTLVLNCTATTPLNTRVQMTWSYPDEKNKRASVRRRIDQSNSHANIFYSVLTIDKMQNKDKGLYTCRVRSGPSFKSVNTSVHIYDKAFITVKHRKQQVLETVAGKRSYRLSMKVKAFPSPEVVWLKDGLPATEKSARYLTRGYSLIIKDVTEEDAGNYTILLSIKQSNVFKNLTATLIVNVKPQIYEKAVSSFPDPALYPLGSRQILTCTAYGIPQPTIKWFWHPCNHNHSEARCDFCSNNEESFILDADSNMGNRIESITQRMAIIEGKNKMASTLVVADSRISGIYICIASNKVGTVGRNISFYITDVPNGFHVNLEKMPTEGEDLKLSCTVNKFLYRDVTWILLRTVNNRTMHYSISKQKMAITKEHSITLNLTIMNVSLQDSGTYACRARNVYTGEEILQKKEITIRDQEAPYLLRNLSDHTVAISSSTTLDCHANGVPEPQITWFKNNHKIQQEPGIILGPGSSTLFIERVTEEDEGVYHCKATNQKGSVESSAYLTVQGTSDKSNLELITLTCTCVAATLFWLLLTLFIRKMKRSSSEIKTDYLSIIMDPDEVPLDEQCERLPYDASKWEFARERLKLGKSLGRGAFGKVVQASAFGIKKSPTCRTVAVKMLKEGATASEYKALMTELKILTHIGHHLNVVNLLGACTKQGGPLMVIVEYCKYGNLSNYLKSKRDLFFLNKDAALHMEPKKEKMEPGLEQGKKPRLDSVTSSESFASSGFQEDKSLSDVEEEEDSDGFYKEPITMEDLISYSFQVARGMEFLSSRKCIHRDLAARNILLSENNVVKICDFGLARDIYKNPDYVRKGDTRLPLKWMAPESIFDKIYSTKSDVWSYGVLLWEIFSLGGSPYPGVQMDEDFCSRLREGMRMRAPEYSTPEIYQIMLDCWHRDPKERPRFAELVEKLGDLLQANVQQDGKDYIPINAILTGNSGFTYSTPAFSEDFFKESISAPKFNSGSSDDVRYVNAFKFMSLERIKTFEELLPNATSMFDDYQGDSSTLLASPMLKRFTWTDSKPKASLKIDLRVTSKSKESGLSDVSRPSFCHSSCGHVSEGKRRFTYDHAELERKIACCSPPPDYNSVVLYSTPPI
Sequence of Fibroblast growth factor receptor 1 (P11362 whole entry): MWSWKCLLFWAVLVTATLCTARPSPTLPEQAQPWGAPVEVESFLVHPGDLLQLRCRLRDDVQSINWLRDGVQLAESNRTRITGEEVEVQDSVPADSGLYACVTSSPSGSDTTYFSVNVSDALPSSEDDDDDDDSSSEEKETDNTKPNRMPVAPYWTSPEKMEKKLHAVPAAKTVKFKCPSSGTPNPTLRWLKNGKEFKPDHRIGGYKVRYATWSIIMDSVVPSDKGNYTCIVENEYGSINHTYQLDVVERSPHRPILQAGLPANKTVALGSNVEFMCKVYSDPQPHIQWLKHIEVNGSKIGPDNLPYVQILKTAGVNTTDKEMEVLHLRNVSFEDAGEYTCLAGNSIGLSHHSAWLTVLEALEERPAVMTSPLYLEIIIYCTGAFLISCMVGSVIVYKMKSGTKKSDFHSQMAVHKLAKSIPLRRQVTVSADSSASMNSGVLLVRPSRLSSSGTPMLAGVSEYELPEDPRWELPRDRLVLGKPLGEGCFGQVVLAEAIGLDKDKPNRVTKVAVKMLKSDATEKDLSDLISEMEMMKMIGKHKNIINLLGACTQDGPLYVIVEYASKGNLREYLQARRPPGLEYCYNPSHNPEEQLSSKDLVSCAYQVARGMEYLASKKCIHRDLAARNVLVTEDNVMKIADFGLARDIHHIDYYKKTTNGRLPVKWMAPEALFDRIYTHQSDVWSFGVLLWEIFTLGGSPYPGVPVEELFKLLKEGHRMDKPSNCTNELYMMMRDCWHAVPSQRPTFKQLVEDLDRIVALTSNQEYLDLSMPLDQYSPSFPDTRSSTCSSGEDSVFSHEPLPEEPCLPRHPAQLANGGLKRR
Sequence of Tyrosine-protein kinase Fyn (P06241 whole entry): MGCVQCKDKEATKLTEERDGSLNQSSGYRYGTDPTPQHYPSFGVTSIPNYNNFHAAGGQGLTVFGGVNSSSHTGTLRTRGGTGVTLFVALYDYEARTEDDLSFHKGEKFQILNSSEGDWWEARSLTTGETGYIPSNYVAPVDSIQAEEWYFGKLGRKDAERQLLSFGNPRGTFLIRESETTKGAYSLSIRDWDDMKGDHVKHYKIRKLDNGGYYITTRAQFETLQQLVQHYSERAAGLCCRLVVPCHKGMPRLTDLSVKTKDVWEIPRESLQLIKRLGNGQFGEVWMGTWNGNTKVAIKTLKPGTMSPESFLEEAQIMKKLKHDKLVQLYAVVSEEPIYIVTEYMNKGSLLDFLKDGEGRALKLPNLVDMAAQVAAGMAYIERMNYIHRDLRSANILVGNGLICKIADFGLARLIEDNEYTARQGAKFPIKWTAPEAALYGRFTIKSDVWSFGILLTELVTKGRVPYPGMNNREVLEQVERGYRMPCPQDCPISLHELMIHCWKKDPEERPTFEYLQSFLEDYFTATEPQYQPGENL
Sequence of Tyrosine-protein kinase Lck (P06239 2-509 limits assumed): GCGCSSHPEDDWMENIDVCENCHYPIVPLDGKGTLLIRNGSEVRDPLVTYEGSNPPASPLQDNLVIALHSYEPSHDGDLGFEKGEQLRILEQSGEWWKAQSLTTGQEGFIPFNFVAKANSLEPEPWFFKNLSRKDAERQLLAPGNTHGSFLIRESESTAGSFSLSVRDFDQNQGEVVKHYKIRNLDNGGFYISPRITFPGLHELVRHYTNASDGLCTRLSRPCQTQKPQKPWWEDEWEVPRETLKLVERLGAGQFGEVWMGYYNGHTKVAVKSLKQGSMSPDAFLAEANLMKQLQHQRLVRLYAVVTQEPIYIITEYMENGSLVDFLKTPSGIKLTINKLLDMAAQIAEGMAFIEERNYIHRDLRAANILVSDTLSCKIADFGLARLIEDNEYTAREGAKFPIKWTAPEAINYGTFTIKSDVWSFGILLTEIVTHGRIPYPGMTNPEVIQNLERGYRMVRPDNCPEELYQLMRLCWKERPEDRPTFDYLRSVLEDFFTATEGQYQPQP

Cc1[nH]c(/C=C2\C(=O)Nc3ccc(F)cc32)c(C)c1NC(=O)CCN1CCN(C)CC1 showed a Ki [1] of 1800 nM, an inhibition [2] of 76% and an IC50 [3] of 17100 nM. The Ki [4] was 1100 nM, the inhibition [5] was 87% and the Activity (Mus musculus [6]) was “Non-toxic”. The Ki [7] was 350 nM, the inhibition [8] was 44% and the Activity (Mus musculus [9]) was 1.4%. For the same compound, the inhibition [10] was 95%, the Ki [11] was 110 nM and the inhibition (Focal adhesion kinase 1) was 66%. The Activity (Mus musculus [12]) was “Non-toxic”, the inhibition [13] was 99% and the Ki [14] was 230 nM.
